Data reported in patent publication US9198913B2, “Nitroimidazooxazines and their uses in anti-tubercular therapy” (priority 2009, dated 2015).
Converted amounts (≈) assume the structure as drawn.

Assays:
[1] = In vivo pharmacokinetics in mice; conditions: CD-1 mice, oral, 40 mg/kg; for half-life / Kp / Cmax: mouse; for half-life / Cmax: in vivo, plasma; for half-life: read-out: t½ (h) plasma (converted); for Kp: lung/plasma, read-out: AUC ratio (lung/plasma);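 as to all read-outs here: plasma and lung samples quantified by LC-MS/MS, dosing as a suspension in aqueous carboxymethylcellulose with Tween 80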
[2] = Water solubility (sonicated suspension, HPLC); format: physicochemical; conditions: in water; for solubility at 15 min: thermodynamic from solid;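 as to all read-outs here: concentration in the clear supernatant quantified by HPLC peak area against a DMSO standard solution of the same compound, corrected for dilution and injection volume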
[3] = Stability to human liver microsomes; format: in vitro ADME; conditions: 1 μM, 37° C., 60 min, pooled human liver microsomes;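 also: parent compound quantified by LC-MS/MS against an internal standard, duplicates averaged, expressed relative to the 0 min sample taken as 100%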
[4] = Stability to mouse liver microsomes; format: in vitro ADME; conditions: 1 μM, 37° C., 60 min, CD-1 mouse liver microsomes;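 also: analyte quantified by LC-MS/MS as ratio to internal standard peak area, mean of duplicates, 60 min value expressed relative to the 0 min level (100%)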

Compound | AUC lung [1] | half-life [1] | Kp [1] | melting point | solubility at 15 min [2] | Microsomes (% remaining, 1 h) Human [3] | Microsomes (% remaining, 1 h) Mouse [4] | Solubility [2] | Cmax [1]
O=[N+]([O-])c1cn2c(n1)OC[C@@H](Oc1ccc(-c3ccc(OC(F)(F)F)cc3)cc1)C2 [Compound 13, (6S)-2-Nitro-6-{[4′-(trifluoromethoxy)[1,1′-biphenyl]-4-yl]oxy}-6,7-dihydro-5H-imidazo[2,1-b][1,3]oxazine] | 347 µg·h/mL | 38 h | 3.4 | 210 °C | 3 µg/mL (≈ 7.12 µM) |  |  |  | 
O=C(O[C@@H]1COc2nc([N+](=O)[O-])cn2C1)N1CCN(c2ccc(OC(F)(F)F)cc2)CC1 [Compound 20, (6S)-2-Nitro-6,7-dihydro-5H-imidazo[2,1-b][1,3]oxazin-6-yl 4-[4-(trifluoromethoxy)phenyl]-1-piperazinecarboxylate] | 169 µg·h/mL |  |  | 166 to 168 °C | 17 µg/mL (≈ 37.2 µM) | 82% | 85% |  | 
O=[N+]([O-])c1cn2c(n1)OC[C@@H](OCc1cnc(-c3ccc(OC(F)(F)F)cc3)cn1)C2 [Compound 4, (6S)-2-Nitro-6-({5-[4-(trifluoromethoxy)phenyl]-2-pyrazinyl}methoxy)-6,7-dihydro-5H-imidazo[2,1-b][1,3]oxazine] | >324 µg·h/mL |  |  | 182 to 184 °C |  | 98% |  | 2.6 µg/mL (≈ 5.95 µM) | 
O=[N+]([O-])c1cn2c(n1)OC[C@@H](OCc1ccc(/C=C/c3ccc(OC(F)(F)F)cc3)cc1)C2 [Compound 31, (6S)-2-Nitro-6-[(4-{(E)-2-[4-(trifluoromethoxy)phenyl]ethenyl}benzyl)oxy]-6,7-dihydro-5H-imidazo[2,1-b][1,3]oxazine] |  |  |  | 228 to 230 °C |  | 99% | 98% |  | 
O=[N+]([O-])c1cn2c(n1)OC[C@@H](OCc1cnn(-c3ccc(OC(F)(F)F)cc3)c1)C2 [Compound 27, (6S)-2-Nitro-6-({1-[4-(trifluoromethoxy)phenyl]-1H-pyrazol-4-yl}methoxy)-6,7-dihydro-5H-imidazo[2,1-b][1,3]oxazine] |  |  |  | 150 to 151 °C |  | 87% | 64% |  | 
O=[N+]([O-])c1cn2c(n1)OC[C@@H](OCc1ccc(-c3ccc(C(F)(F)F)nc3)cc1)C2 [Compound 9, (6S)-2-Nitro-6-({4-[6-(trifluoromethyl)-3-pyridinyl]benzyl}oxy)-6,7-dihydro-5H-imidazo[2,1-b][1,3]oxazine] | 414 µg·h/mL |  | 1.9 | 221 to 222 °C |  | 86% |  | 1.0 µg/mL (≈ 2.38 µM) | 13500 ng/mL
O=[N+]([O-])c1cn2c(n1)OC[C@@H](OCc1ccc(-c3ccc(OC(F)(F)F)cc3)cn1)C2 [Compound 7, (6S)-2-Nitro-6-({5-[4-(trifluoromethoxy)phenyl]-2-pyridinyl}methoxy)-6,7-dihydro-5H-imidazo[2,1-b][1,3]oxazine] | 427 µg·h/mL |  |  | 157 to 159 °C |  |  |  |  | 25900 ng/mL
O=[N+]([O-])c1cn2c(n1)OC[C@@H](OCc1ccn(-c3ccc(OC(F)(F)F)cc3)n1)C2 [Compound 10, (6S)-2-Nitro-6-({1-[4-(trifluoromethoxy)phenyl]-1H-pyrazol-3-yl}methoxy)-6,7-dihydro-5H-imidazo[2,1-b][1,3]oxazine] | 31.5 µg·h/mL | 2.4 h | 3.5 | 103 to 105 °C |  | 87% | 67% |  | 1510 ng/mL
O=[N+]([O-])c1cn2c(n1)OC[C@@H](OCc1ccc(-c3ccc(F)cn3)cc1)C2 [Compound 26, (6S)-6-{[4-(5-Fluoro-2-pyridinyl)benzyl]oxy}-2-nitro-6,7-dihydro-5H-imidazo[2,1-b][1,3]oxazine] |  |  |  | 180 to 181 °C |  | 83% | 61% | 67 µg/mL (≈ 181 µM) | 
O=[N+]([O-])c1cn2c(n1)OC[C@@H](OCc1ccc(-c3ccc(OC(F)(F)F)c(F)c3)nc1)C2 [Compound 21, (6S)-6-({6-[3-Fluoro-4-(trifluoromethoxy)phenyl]-3-pyridinyl}methoxy)-2-nitro-6,7-dihydro-5H-imidazo[2,1-b][1,3]oxazine] | 251 µg·h/mL | 13.9 h | 1.4 |  |  | 100% | 90% | 3.0 µg/mL (≈ 6.6 µM) | 
O=[N+]([O-])c1cn2c(n1)OC[C@@H](OCc1ccc(C#Cc3ccc(OC(F)(F)F)cc3)nc1)C2 [Compound 33, (6S)-2-Nitro-6-[(6-{[4-(trifluoromethoxy)phenyl]ethynyl}-3-pyridinyl)methoxy]-6,7-dihydro-5H-imidazo[2,1-b][1,3]oxazine] |  |  |  | 235 to 238 °C |  |  |  |  | 
O=[N+]([O-])c1cn2c(n1)OC[C@@H](OCc1ccc(C#Cc3ccc(OC(F)(F)F)cc3)cn1)C2 [Compound 18, (6S)-2-Nitro-6-[(5-{[4-(trifluoromethoxy)phenyl]ethynyl}-2-pyridinyl)methoxy]-6,7-dihydro-5H-imidazo[2,1-b][1,3]oxazine] | 235 µg·h/mL | 23.5 h | 2.5 | 207 to 208 °C | 0.36 µg/mL (≈ 0.782 µM) |  |  |  | 2360 ng/mL
O=[N+]([O-])c1cn2c(n1)OC[C@@H](OCc1ccc(C#Cc3ccc(C(F)(F)F)nc3)cn1)C2 [Compound 25, (6S)-2-Nitro-6-[(5-{[6-(trifluoromethyl)-3-pyridinyl]ethynyl}-2-pyridinyl)methoxy]-6,7-dihydro-5H-imidazo[2,1-b][1,3]oxazine] |  |  |  | 226 to 227 °C |  | 88% | 91% |  | 
O=[N+]([O-])c1cn2c(n1)OC[C@@H](OCc1ncc(-c3ccc(OC(F)(F)F)cc3)cn1)C2 [Compound 29, (6S)-2-Nitro-6-({5-[4-(trifluoromethoxy)phenyl]-2-pyrimidinyl}methoxy)-6,7-dihydro-5H-imidazo[2,1-b][1,3]oxazine] |  |  |  | 223 to 226 °C |  | 92% | 87% | 8.1 µg/mL (≈ 18.5 µM) | 
O=[N+]([O-])c1cn2c(n1)OC[C@@H](OCc1ccc(-c3ccc(F)cc3)nc1)C2 (hydrate or solvate) [Compound 5, (6S)-6-{[6-(4-Fluorophenyl)-3-pyridinyl]methoxy}-2-nitro-6,7-dihydro-5H-imidazo[2,1-b][1,3]oxazine] |  |  |  | 194 to 196 °C |  |  |  |  | 
O=[N+]([O-])c1cn2c(n1)OC[C@@H](OCc1ccc(-c3ccc(OC(F)(F)F)cc3)nc1)C2 [Compound 6, (6S)-2-Nitro-6-({6-[4-(trifluoromethoxy)phenyl]-3-pyridinyl}methoxy)-6,7-dihydro-5H-imidazo[2,1-b][1,3]oxazine] | 81 µg·h/mL |  |  |  |  | 83% | 87% | 2.3 µg/mL (≈ 5.27 µM) | 12200 ng/mL
O=[N+]([O-])c1cn2c(n1)OC[C@@H](OCc1ccc(C#Cc3ccc(OC(F)(F)F)cc3)cc1)C2 [Compound 32, (6S)-2-Nitro-6-[(4-{[4-(trifluoromethoxy)phenyl]ethynyl}benzyl)oxy]-6,7-dihydro-5H-imidazo[2,1-b][1,3]oxazine] |  |  |  | 233 to 236 °C |  |  |  |  | 
O=[N+]([O-])c1cn2c(n1)OC[C@@H](OCc1ccc(-c3ccc(F)cc3)nc1)C2 [Compound 5, (6S)-6-{[6-(4-Fluorophenyl)-3-pyridinyl]methoxy}-2-nitro-6,7-dihydro-5H-imidazo[2,1-b][1,3]oxazine] | 136 µg·h/mL |  |  |  |  | 88% | 80% | 3.8 µg/mL (≈ 10.3 µM) | 
O=[N+]([O-])c1cn2c(n1)OC[C@@H](OCc1ccc(-c3ccc(OC(F)(F)F)cc3)cc1)C2 [Compound 3, (6S)-2-Nitro-6-{[4′-(trifluoromethoxy)[1,1′-biphenyl]-4-yl]methoxy}-6,7-dihydro-5H-imidazo[2,1-b][1,3]oxazine] | 218 µg·h/mL |  |  | 199 to 201 °C |  |  |  |  | 
O=[N+]([O-])c1cn2c(n1)OC[C@@H](OCc1ccc(-c3ccc(OC(F)(F)F)cc3)c(F)c1)C2 [Compound 15, (6S)-6-{[2-Fluoro-4′-(trifluoromethoxy)[1,1′-biphenyl]-4-yl]methoxy}-2-nitro-6,7-dihydro-5H-imidazo[2,1-b][1,3]oxazine] |  |  |  | 181 to 183 °C | 0.33 µg/mL (≈ 0.728 µM) |  |  |  | 
O=[N+]([O-])c1cn2c(n1)OC[C@@H](OCc1ccc(Cc3ccc(OC(F)(F)F)cc3)cc1)C2 [Compound 17, (6S)-2-Nitro-6-({4-[4-(trifluoromethoxy)benzyl]benzyl}oxy)-6,7-dihydro-5H-imidazo[2,1-b][1,3]oxazine] |  |  |  | 132 to 133 °C | 0.16 µg/mL (≈ 0.356 µM) | 85% | 70% |  | 
O=[N+]([O-])c1cn2c(n1)OC[C@@H](OC/C=C/c1ccc(-c3ccc(OC(F)(F)F)cc3)cc1)C2 [Compound 19, (6S)-2-Nitro-6-({(2E)-3-[4′-(trifluoromethoxy)[1,1′-biphenyl]-4-yl]-2-propenyl}oxy)-6,7-dihydro-5H-imidazo[2,1-b][1,3]oxazine] |  |  |  | 220 to 221 °C |  | 100% | 95% | 0.50 µg/mL (≈ 1.08 µM) | 
